Assay results: patent US8975234B2, “Anti-bacterial infection, inflammation, and leukemia composition and use thereof” (priority 2011, dated 2015)
In brackets after ≈: the same amount, converted by molar mass. Read-outs that look alike come from different tables or passages of the source.

Assays:
[1] = test system: MSSA (Methicillin-susceptible Staphylococcus aureus); assay: Minimum inhibitory concentration (broth microdilution) and FIC index; format: cell-based
Protocol: (§1) A serial of twofold dilution of the tested antibiotics (oxacillin, erythromycin, ampicillin, kanamycin, levofoxacin, vancomycin and doxycycline) was perform by Broth microdilution method to a final concentration of 2-512 μg/mL. The bacterial overnight culture was collected and re-suspended in the Muller-Hilton (M-H) broth. An aliquot of cell suspension (OD600=0.1) was prepared. The bacterial suspensions were plated in 96-well plate and incubated with test antibiotics at 37° C. in a 5% CO2 incubator (Table 1 to Table 4).
(§2) The […], […] and antagonism between two drugs was evaluated by the following formula:
(§3) [formula] The criteria of fractional inhibitory concentration index: […]

MRSA 18271 = assay: as above; format: cell-based, Staphylococcus aureus
Protocol: as §1, §2, §3

MRSA 18631 = assay: as above; format: cell-based, Staphylococcus aureus
Protocol: as §1, §2, §3

MRSA 19615 = assay: as above; format: cell-based, Staphylococcus aureus
Protocol: as §1, §2, §3

[2] = test system: standard MRSA strain (ATCC 33591); assay: Minimum inhibitory concentration (broth microdilution); format: cell-based, Staphylococcus aureus; settings: Table 1; for MIC: Staphylococcus aureus
Protocol: as §1

DPPH scavenging assay = settings: 100 μM; −FeCl2
Protocol: Test reagents, natural extracts and Vitamin C (ascorbic acid) were dissolved in methanol to make a stock solution 10×. Vitamin C was used as the positive control. 120 μM DPPH solution was prepared. Taken 20 μL of stock reagents, natural extracts and Vitamin C on a 96-well microplate, and methanol was added to make up to the total volume of 100 μL. Control was 100 μL methanol. Each sample was mixed with 100 μL DPPH solution and incubated in the dark for 40 minutes. DPPH level of each well was evaluated by detecting the optical density of each well at 517 nm and the results were shown in Table 5.

K-562 cells = assay: ROS test (DCF-DA); format: cell-based, human; settings: pre-treatment 10 μM before Tellimagrandin II 50 μM for 2 hours
Protocol: A radical specific fluorescent dye, 2′,7′-dichlorofluorescein (DCF-DA) was used to detect H2O2/NO-based radicals or O2— in cells respectively.
A total of 3 mL cell solution at the concentration of 1×10^6 K-562 cells per mL was cultured with 6 cm cell culture plates in an incubator supplied with 5% CO2 at 37° C. for 30 minutes so that cells could adapt to the environment. Tellimagrandin II solutions of different concentrations were added by order so that the final concentrations are 0, 30, 40 and 50 μM respectively. The solution was placed in incubator with 5% CO2 at 37° C. for 2 hours before being centrifuged at 3,500 rpm at 4° C. for 5 minutes and then being rinsed by PBS once. 2′,7′-dichlorofluorescein (DCF-DA) was added before the solution was put into dark incubator for 45 minutes and then rinsed by PBS once again. Finally, 1 mL PBS was used to resuspend the cells before BD FACScan was used to detect the fluorescent signal.

[3] = Staphylococcus aureus, MSSA, Table 1, MSSA, read-out: Minimum inhibitory concentration
[4] = Staphylococcus aureus, MSSA, Table 2, Non-drug resistant Staphylococcus aureus, with TG II 30 μg/mL, read-out: MIC
[5] = Staphylococcus aureus, MSSA, Table 2, Non-drug resistant Staphylococcus aureus, without TG II, read-out: MIC
[6] = Staphylococcus aureus, MSSA, Table 3, MSSA, Tellimagrandin II (40 μg/ml) −, read-out: MIC
[7] = Table 2, Non-drug resistant Staphylococcus aureus, with TG II 30 μg/mL
[8] = Table 3, MSSA, Tellimagrandin II (40 μg/ml) +
[9] = Staphylococcus aureus, MRSA, Table 1, MRSA 18271, read-out: Minimum inhibitory concentration
[10] = Staphylococcus aureus, MRSA, Table 2, 18271, with TG II 30 μg/mL, read-out: MIC
[11] = Staphylococcus aureus, MRSA, Table 2, 18271, with TG II 40 μg/mL, read-out: MIC
[12] = Staphylococcus aureus, MRSA, Table 2, 18271, without TG II, read-out: MIC
[13] = Staphylococcus aureus, MRSA, Table 3, 18271, Tellimagrandin II (40 μg/ml) −, read-out: MIC
[14] = Table 2, 18271, with TG II 30 μg/mL
[15] = Table 2, 18271, with TG II 40 μg/mL
[16] = Table 3, 18271, Tellimagrandin II (40 μg/ml) +
[17] = Staphylococcus aureus, MRSA, Table 1, MRSA 18631, read-out: Minimum inhibitory concentration
[18] = Staphylococcus aureus, MRSA, Table 2, 18631, with TG II 30 μg/mL, read-out: MIC
[19] = Staphylococcus aureus, MRSA, Table 2, 18631, with TG II 40 μg/mL, read-out: MIC
[20] = Staphylococcus aureus, MRSA, Table 2, 18631, without TG II, read-out: MIC
[21] = Staphylococcus aureus, MRSA, Table 3, 18631, Tellimagrandin II (40 μg/ml) −, read-out: MIC
[22] = Table 2, 18631, with TG II 30 μg/mL
[23] = Table 2, 18631, with TG II 40 μg/mL
[24] = Table 3, 18631, Tellimagrandin II (40 μg/ml) +
[25] = Staphylococcus aureus, MRSA, Table 1, MRSA 19615, read-out: Minimum inhibitory concentration
[26] = Staphylococcus aureus, MRSA, Table 2, 19615, with TG II 30 μg/mL, read-out: MIC
[27] = Staphylococcus aureus, MRSA, Table 2, 19615, with TG II 40 μg/mL, read-out: MIC
[28] = Staphylococcus aureus, MRSA, Table 2, 19615, without TG II, read-out: MIC
[29] = Staphylococcus aureus, MRSA, Table 3, 19615, Tellimagrandin II (40 μg/ml) −, read-out: MIC
[30] = Table 2, 19615, with TG II 30 μg/mL
[31] = Table 2, 19615, with TG II 40 μg/mL
[32] = Table 3, 19615, Tellimagrandin II (40 μg/ml) +

MIC [1, 3]	MIC [1, 4]	MIC [1, 5]	MIC [1, 6]	MIC [1, 8]	MIC (MRSA 18271; [9])	MIC (MRSA 18271; [10])	MIC (MRSA 18271; [11])	MIC (MRSA 18271; [12])	MIC (MRSA 18271; [13])	MIC (MRSA 18271; [16])	MIC (MRSA 18631; [17])	MIC (MRSA 18631; [18])	MIC (MRSA 18631; [19])	MIC (MRSA 18631; [20])	Compound	FIC [1, 7]	FIC [1, 8]	FIC (MRSA 18271; [14])	FIC (MRSA 18271; [15])	FIC (MRSA 18271; [16])	also measured
															Penicillin						Minimum inhibitory concentration ([1]; Table 1, MSSA): >512 µg/mL; Minimum inhibitory concentration (MRSA 18271; Table 1, MRSA 18271): >512 µg/mL; Minimum inhibitory concentration (MRSA 18631; Table 1, MRSA 18631): >512 µg/mL; Minimum inhibitory concentration (MRSA 19615; Table 1, MRSA 19615): >512 µg/mL; Minimum inhibitory concentration [2]: >512 µg/mL
															O=C1O[C@H]([C@@H](O)CO)C(O)=C1O [Vitamin C, ascorbic acid]						DPPH free-radical scavenging activity (DPPH scavenging assay): 81.09 ± 0.5%
> 512 µg/mL	8 µg/mL	> 512 µg/mL	512 µg/mL	512 µg/mL	> 512 µg/mL	512 µg/mL	512 µg/mL	> 512 µg/mL	512 µg/mL	512 µg/mL	> 512 µg/mL	512 µg/mL	512 µg/mL	> 512 µg/mL	C[C@H]1COc2c(N3CCN(C)CC3)c(F)cc3c(=O)c(C(=O)O)cn1c23 [Levofloxacin]	0.016	1.00	1	1	1.00	MIC (MRSA 18631; [21]): 256 µg/mL; FIC (MRSA 18631; [22]): 1; FIC (MRSA 18631; [23]): 1; FIC (MRSA 18631; [24]): 2.00; MIC (MRSA 18631; [24]): 512 µg/mL; MIC (MRSA 19615; [25]): > 512 µg/mL; MIC (MRSA 19615; [26]): 512 µg/mL; MIC (MRSA 19615; [27]): 512 µg/mL; MIC (MRSA 19615; [28]): > 512 µg/mL; MIC (MRSA 19615; [29]): 512 µg/mL; FIC (MRSA 19615; [30]): 1; FIC (MRSA 19615; [31]): 1; FIC (MRSA 19615; [32]): 1.00; MIC (MRSA 19615; [32]): 512 µg/mL; MIC [2]: 32 µg/mL (≈ 88.6 µM)
128 µg/mL	16 µg/mL	128 µg/mL	128 µg/mL	8 µg/mL	> 512 µg/mL	2 µg/mL	2 µg/mL	512 µg/mL	512 µg/mL	2 µg/mL	256 µg/mL	2 µg/mL	2 µg/mL	256 µg/mL	C[C@H]1c2cccc(O)c2C(=O)C2=C(O)[C@]3(O)C(=O)C(C(N)=O)=C(O)[C@@H](N(C)C)[C@@H]3[C@@H](O)[C@@H]21 [Doxycycline]	0.125	0.063	0.004	0.004	0.004	MIC ([1]; Staphylococcus aureus, MSSA, Table 2, Non-drug resistant Staphylococcus aureus, with TG II 40 μg/mL, read-out: MIC): 8 µg/mL; FIC ([1]; Table 2, Non-drug resistant Staphylococcus aureus, with TG II 40 μg/mL): 0.016; MIC (MRSA 18631; [21]): 256 µg/mL; FIC (MRSA 18631; [22]): 0.008; FIC (MRSA 18631; [23]): 0.008; FIC (MRSA 18631; [24]): 0.008; MIC (MRSA 18631; [24]): 2 µg/mL; MIC (MRSA 19615; [25]): > 512 µg/mL; MIC (MRSA 19615; [26]): 16 µg/mL; MIC (MRSA 19615; [27]): 8 µg/mL; MIC (MRSA 19615; [28]): 512 µg/mL; MIC (MRSA 19615; [29]): 512 µg/mL; FIC (MRSA 19615; [30]): 0.031; FIC (MRSA 19615; [31]): 0.016; FIC (MRSA 19615; [32]): 0.016; MIC (MRSA 19615; [32]): 8 µg/mL; MIC [2]: 64 µg/mL (≈ 144 µM)
															CC(=O)N[C@@H](CS)C(=O)O [N-acetyl-L-cysteine]						ROS production (K-562 cells): inhibition of ROS production
